Test results reported in patent publication EP3398599A1, “COMPOSITIONS AND METHODS FOR PROPHYLAXIS AND TREATMENT OF ADDICTIONS” (priority 2009, dated 2010).

Test system: Long Evans rats
Experiment: Yohimbine-induced reinstatement of nicotine seeking
Type: in vivo
Settings: yohimbine 2.0 mg/kg/ml; p<0.001
Protocol: Stress and anxiety are major factors in resuming nicotine use in former abstinent users. […] Briefly, following acquisition of a stable baseline of IV nicotine self-administration (30µg/0.1ml/infusion), male Long Evans rats (n=8) were subjected to an extinction period of 5 days.
Reinstatement experiments and relative drug treatments were performed every third day. Between reinstatements, extinction baseline was re-established.

SMILES: COC(=O)[C@@H]1[C@H]2C[C@H]3c4[nH]c5ccccc5c4CCN3C[C@@H]2CC[C@@H]1O [yohimbine]
- reinstatement of responding (nicotine seeking) compared to extinction: significant reinstatement of responding
